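All cell lines were grown in 96-well plates and treated with compound for 48 hours. GI50 = concentration required for 50% inhibition of growth.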 Active and inactive are the calls of the source. Cut-off read from the data, not from the text of the source: active = GI50 up to about 1.1 µM and inactive = higher.
Columns and labels:
Assay in all cases: NCI-60 cell line screen, 48 h
Malme-3M = system: Malme-3M
Hs-578T = system: Hs-578T
K562 = system: K562
KM12 = system: KM12
MDA-MB-435 = system: MDA-MB-435
ACHN = system: ACHN
NCI-H460 = system: NCI-H460
HCC 2998 = system: HCC 2998
BT-549 = system: BT-549
DU-145 = system: DU-145
HOP-92 = system: HOP-92
OVCAR-4 = system: OVCAR-4
HCT-15 = system: HCT-15
HT-29 = system: HT-29
DMS-114 = system: DMS-114
HOP-18 = system: HOP-18
LXFL 529 = system: LXFL 529
SNB-78 = system: SNB-78
KM-20L2 = system: KM-20L2
XF498 = system: XF498

| Compound | GI50 (Malme-3M) | GI50 (Hs-578T) | GI50 (K562) | GI50 (KM12) | GI50 (MDA-MB-435) | GI50 (ACHN) | GI50 (NCI-H460) | GI50 (HCC 2998) | GI50 (BT-549) | GI50 (DU-145) | GI50 (HOP-92) | GI50 (OVCAR-4) | GI50 (HCT-15) [µM] | GI50 (HT-29) | GI50 (DMS-114) | GI50 (HOP-18) | GI50 (LXFL 529) | GI50 (SNB-78) | GI50 (KM-20L2) | GI50 (XF498) |
| --- | --- | --- | --- | --- | --- | --- | --- | --- | --- | --- | --- | --- | --- | --- | --- | --- | --- | --- | --- | --- |
| C=CCNC(=S)N/N=C1\C(=O)Nc2ccc([N+](=O)[O-])cc21 | > 100 µM (inactive) | > 100 µM (inactive) | 32.1 µM (inactive) | 46.6 µM (inactive) | 89.3 µM (inactive) | 23.3 µM (inactive) | 16.6 µM (inactive) | 23.3 µM (inactive) | 52.4 µM (inactive) | 31.4 µM (inactive) | 44.2 µM (inactive) | 41.4 µM (inactive) | 7.57 | 68.7 µM (inactive) | – | – | – | – | – | – |
| COC1/C=C/C(C)C(C(C)C(OC)C(C)CCC(=O)C(C)C(C/C=C/N(C)C=O)OC)OC(=O)/C=C/C=C(\C)CC(OC)CC2=CC(=O)O[C@H](C2)C(C)C(OC)CC(OC)/C=C/C(C)C(OC)C1 (stereo partly drawn) | 0.00966 µM (active) | 0.0158 µM (active) | – | 0.0094 µM (active) | 0.0286 µM (active) | – | < 0.005 µM (active) | 0.0133 µM (active) | 0.0108 µM (active) | 0.191 µM (active) | 0.0142 µM (active) | 0.0984 µM (active) | < 0.005 | < 0.005 µM (active) | – | – | – | – | – | – |
| COc1nc2[nH]ccc2c(=O)[nH]1 | > 100 µM (inactive) | – | > 100 µM (inactive) | > 100 µM (inactive) | – | > 100 µM (inactive) | > 100 µM (inactive) | > 100 µM (inactive) | – | – | > 100 µM (inactive) | > 100 µM (inactive) | – | > 100 µM (inactive) | > 100 µM (inactive) | 42.7 µM (inactive) | > 100 µM (inactive) | > 100 µM (inactive) | > 100 µM (inactive) | – |
| FC(F)(F)C(C1=NC(C(F)(F)F)(C(F)(F)F)N=C(N2CCOCC2)O1)C(F)(F)F | – | 32.4 µM (inactive) | – | 39.3 µM (inactive) | 15.3 µM (inactive) | 17.4 µM (inactive) | 29 µM (inactive) | 41.5 µM (inactive) | 17.9 µM (inactive) | 35.5 µM (inactive) | 25.8 µM (inactive) | 22.9 µM (inactive) | 26.1 | 18.7 µM (inactive) | – | – | – | – | – | – |
| COc1ccc(C2COc3cc(O)c(O)cc3C2)cc1 (stereo not drawn) | 15.3 µM (inactive) | – | 9.08 µM (inactive) | 39.7 µM (inactive) | – | – | 24 µM (inactive) | 21.4 µM (inactive) | – | – | 11.6 µM (inactive) | 12.1 µM (inactive) | 10.2 | 40.7 µM (inactive) | – | 29.9 µM (inactive) | – | 38.3 µM (inactive) | 76.2 µM (inactive) | 7.28 µM (inactive) |
| COC1OC(=O)[C@H]2O[N+]([O-])=C(C)[C@@H]12 (stereo partly drawn) | > 100 µM (inactive) | – | > 100 µM (inactive) | > 100 µM (inactive) | – | – | > 100 µM (inactive) | > 100 µM (inactive) | – | – | > 100 µM (inactive) | > 100 µM (inactive) | > 100 | > 100 µM (inactive) | > 100 µM (inactive) | > 100 µM (inactive) | – | > 100 µM (inactive) | > 100 µM (inactive) | > 100 µM (inactive) |
| CC(=O)OCC1OC(n2c(-c3ccc(Cl)cc3)cc(-c3ccccc3)c(C#N)c2=S)C(OC(C)=O)C(OC(C)=O)C1OC(C)=O (stereo not drawn) | 2.87 µM (inactive) | 2.71 µM (inactive) | 3.66 µM (inactive) | 18.5 µM (inactive) | 12.7 µM (inactive) | 13.5 µM (inactive) | 5.78 µM (inactive) | 7.14 µM (inactive) | 5.01 µM (inactive) | 15.7 µM (inactive) | 19.6 µM (inactive) | 1.79 µM (inactive) | 29.9 | 7.06 µM (inactive) | – | – | – | – | – | – |
| COc1ccc(CCCC(=O)O)c(C)c1 | 27.2 µM (inactive) | 43.5 µM (inactive) | 39.3 µM (inactive) | 36.4 µM (inactive) | 32.8 µM (inactive) | 35.1 µM (inactive) | 11.7 µM (inactive) | – | 84.9 µM (inactive) | 21.1 µM (inactive) | 27.4 µM (inactive) | 48.2 µM (inactive) | > 100 | > 100 µM (inactive) | – | – | – | – | – | – |
| c1ccc(CSC(SCc2ccccc2)c2cccc3ccccc23)cc1 | > 10 µM (inactive) | > 10 µM (inactive) | > 10 µM (inactive) | > 10 µM (inactive) | > 10 µM (inactive) | > 10 µM (inactive) | > 10 µM (inactive) | > 10 µM (inactive) | – | > 10 µM (inactive) | – | > 10 µM (inactive) | > 10 | > 10 µM (inactive) | – | – | – | – | – | – |
| CCN(CC)CCCC(C)Nc1cc(-c2ccccc2)nc2cc(OC)ccc12 (stereo not drawn) | 10.4 µM (inactive) | – | 0.8 µM (active) | 5.33 µM (inactive) | – | 6.53 µM (inactive) | 2.92 µM (inactive) | 1.15 µM (inactive) | – | – | 2.23 µM (inactive) | 4.88 µM (inactive) | – | 1.94 µM (inactive) | 6.68 µM (inactive) | – | 6.28 µM (inactive) | 3.21 µM (inactive) | 2.25 µM (inactive) | – |
| O=c1c(-c2ccccc2)c(SCCCN2CCCCC2)n(-c2ccccc2)c(=S)n1-c1ccccc1 | 21.5 µM (inactive) | 34.2 µM (inactive) | 14.1 µM (inactive) | 19.4 µM (inactive) | 17.7 µM (inactive) | 17.4 µM (inactive) | 16.4 µM (inactive) | 3.83 µM (inactive) | 18 µM (inactive) | 17.7 µM (inactive) | 12.1 µM (inactive) | 24 µM (inactive) | 17.3 | – | – | – | – | – | – | – |
| N#CC1(CCCI)CCCC1 | 18.8 µM (inactive) | – | 27.7 µM (inactive) | 17.5 µM (inactive) | – | 21.4 µM (inactive) | 2.92 µM (inactive) | 33.7 µM (inactive) | – | – | 15.6 µM (inactive) | – | 14.5 | 15.2 µM (inactive) | 3.72 µM (inactive) | 13.5 µM (inactive) | 23.2 µM (inactive) | 20.1 µM (inactive) | 22.6 µM (inactive) | 18.6 µM (inactive) |
| Cc1c2ccncc2cc2c1[nH]c1ccccc12 | 7.05 µM (inactive) | – | 3.48 µM (inactive) | 4.56 µM (inactive) | – | – | 1.77 µM (inactive) | 5.04 µM (inactive) | – | – | 5.37 µM (inactive) | 6.12 µM (inactive) | 4.2 | 4.42 µM (inactive) | 5.27 µM (inactive) | 0.789 µM (active) | – | 13 µM (inactive) | 3.37 µM (inactive) | 1.12 µM (active) |
| NC1CCCCC1.O=P(O)(O)C(CSc1ccccc1)P(=O)(O)O | > 100 µM (inactive) | – | > 100 µM (inactive) | > 100 µM (inactive) | – | – | > 100 µM (inactive) | > 100 µM (inactive) | – | – | > 100 µM (inactive) | > 100 µM (inactive) | > 100 | > 100 µM (inactive) | > 100 µM (inactive) | > 100 µM (inactive) | – | > 100 µM (inactive) | > 100 µM (inactive) | > 100 µM (inactive) |
| Cc1cc(N(CCC#N)S(=O)(=O)c2ccccc2)ccc1/C=N\c1cccc(C(=O)O)c1 | > 100 µM (inactive) | – | 71 µM (inactive) | – | – | > 100 µM (inactive) | > 100 µM (inactive) | > 100 µM (inactive) | – | – | > 100 µM (inactive) | > 100 µM (inactive) | > 100 | > 100 µM (inactive) | 61 µM (inactive) | > 100 µM (inactive) | > 100 µM (inactive) | > 100 µM (inactive) | > 100 µM (inactive) | – |
| CC1(C)CCc2c(ccc(C(=O)/C=C/c3ccc(O)cc3)c2O)O1 [DORSMANNIN A] | 7.59 µM (inactive) | 14.1 µM (inactive) | 27.8 µM (inactive) | – | 10.3 µM (inactive) | 10.7 µM (inactive) | 12.1 µM (inactive) | – | 12.2 µM (inactive) | 9.25 µM (inactive) | 11.2 µM (inactive) | 9.48 µM (inactive) | 10.8 | 11.9 µM (inactive) | – | – | – | – | – | – |
| O=C(NC(COC(=O)C(Cc1ccccc1)NC(=O)c1ccccc1)Cc1ccccc1)c1ccccc1 (stereo not drawn) | > 50 µM (inactive) | > 50 µM (inactive) | > 50 µM (inactive) | > 50 µM (inactive) | > 50 µM (inactive) | > 50 µM (inactive) | > 50 µM (inactive) | > 50 µM (inactive) | – | – | > 50 µM (inactive) | > 50 µM (inactive) | > 50 | > 50 µM (inactive) | – | – | – | – | – | – |
| CCOC(=O)Nc1ccc(S(=O)(=O)NCCCl)cc1.CCOC(=O)Nc1ccc(S(=O)(=O)NCCCl)cc1.O=C(O)c1ccc(/N=N/Cl)cc1O | > 100 µM (inactive) | – | > 100 µM (inactive) | > 100 µM (inactive) | – | > 100 µM (inactive) | – | > 100 µM (inactive) | – | – | > 100 µM (inactive) | > 100 µM (inactive) | > 100 | > 100 µM (inactive) | > 100 µM (inactive) | > 100 µM (inactive) | > 100 µM (inactive) | > 100 µM (inactive) | > 100 µM (inactive) | – |
| Cc1ccc([N+](=O)[O-])cc1NC(=O)C(=O)C(C(=O)c1ccccc1F)C1OC(=O)c2ccccc21 (stereo not drawn) | – | – | 32.7 µM (inactive) | 52.5 µM (inactive) | – | 62.2 µM (inactive) | 38.9 µM (inactive) | 29.7 µM (inactive) | – | – | > 100 µM (inactive) | 65 µM (inactive) | 26.7 | 38.5 µM (inactive) | 16.5 µM (inactive) | – | 34 µM (inactive) | > 100 µM (inactive) | 34.6 µM (inactive) | 81.5 µM (inactive) |

From ChEMBL document CHEMBL1201862, “PubChem BioAssay data set” (2004)
